The test system of one assay is Staphylococcus aureus. The assay is described as follows: Antibacterial activity against Staphylococcus aureus(FDA 209P strain) at a concentration of 5 ug. It is filed as functional.
Assay [1] is described as follows: In vitro inhibitory activity against bacterial Holo-[acyl-carrier-protein] synthase. Also noted: species or system Staphylococcus aureus.

Zone of inhibition and IC50 data for one compound are collected here from ChEMBL document CHEMBL1136335, “Structure elucidation of Sch 538415, a novel acyl carrier protein synthase inhibitor from a microorganism” (Bioorg Med Chem Lett, 2003).

In general, IC50 refers to the concentration that gives 50% inhibition. Read a high IC50 as a need for much substance.

For `Cc1cc(=O)n(C)c2c1C(=O)c1c(C)cc(=O)n(C)c1C2=O` [DIAZAANTHRAQUINONE], the Zone of inhibition in the assay with Staphylococcus aureus was found to be 12 mm. The compound further yielded an IC50 in assay [1] of 4.19 µM.
